Results: PubChem BioAssay AID248 (DTP/NCI, 2004)
Several values for one entry are separate records, joined by “and”; a condition that tells them apart may be missing. Equal entries are not always repeated. Toxic doses and inconclusive results are not listed. Rule as the data show it: active = T/C of 150% or more; inactive = T/C below 125%.

System: L1210 leukemia ip in BDF1 mice, survival T/C
Experiment: NCI In Vivo Anticancer Drug Screen. Data for tumor model L1210 Leukemia (intraperitoneal) in B6D2F1 (BDF1) mice
Conditions: endpoint: mean survival time, higher = longer survival
Outline: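 Transplanted-tumor mice were given test agent; controls received vehicle only. Survival readings from the two groups were divided (treated over control).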

[1] = dose: 100.0 mg/kg/injection, schedule: Q01DX001 (ip), vehicle: carboxymethylcellulose (CMC)
[2] = dose: 200.0 mg/kg/injection, schedule: Q01DX001 (ip), vehicle: carboxymethylcellulose (CMC)
[3] = dose: 400.0 mg/kg/injection, schedule: Q01DX001 (ip), vehicle: carboxymethylcellulose (CMC)
[4] = dose: 100.0 mg/kg/injection, schedule: Q04DX002 (ip), vehicle: saline with Tween-80
[5] = dose: 100.0 mg/kg/injection, schedule: Q01DX009 (ip), vehicle: Klucel (hydroxypropylcellulose) (HPC)
[6] = dose: 200.0 mg/kg/injection, schedule: Q01DX009 (ip), vehicle: Klucel (hydroxypropylcellulose) (HPC)
[7] = dose: 400.0 mg/kg/injection, schedule: Q01DX009 (ip), vehicle: Klucel (hydroxypropylcellulose) (HPC)
[8] = dose: 100.0 mg/kg/injection, schedule: Q04DX003 (ip), vehicle: Klucel (hydroxypropylcellulose) (HPC)
[9] = dose: 200.0 mg/kg/injection, schedule: Q04DX003 (ip), vehicle: Klucel (hydroxypropylcellulose) (HPC)
[10] = dose: 400.0 mg/kg/injection, schedule: Q04DX003 (ip), vehicle: Klucel (hydroxypropylcellulose) (HPC)
[11] = dose: 200.0 mg/kg/injection, schedule: Q04DX003 (ip), vehicle: carboxymethylcellulose (CMC)
[12] = dose: 100.0 mg/kg/injection, schedule: Q01DX001 (ip), vehicle: saline
[13] = dose: 200.0 mg/kg/injection, schedule: Q01DX001 (ip), vehicle: saline
[14] = dose: 400.0 mg/kg/injection, schedule: Q01DX001 (ip), vehicle: saline

Measured: T/C

CCCCCCCC(=O)O[C@H]1[C@H]2[C@@H](CC1(C)C)C(=O)[C@]13O[C@H]1C(=O)[C@]1(CO1)[C@]23C
inactive: dose: 5.0 mg/kg/injection, schedule: Q01DX009 (ip), vehicle: saline with Tween-80 108 % of control | dose: 10.0 mg/kg/injection, schedule: Q01DX009 (ip), vehicle: saline with Tween-80 119 % of control | dose: 10.0 mg/kg/injection, schedule: Q04DX003 (ip), vehicle: saline with Tween-80 97 % of control | dose: 20.0 mg/kg/injection, schedule: Q01DX009 (ip), vehicle: saline with Tween-80 86 % of control | dose: 20.0 mg/kg/injection, schedule: Q04DX003 (ip), vehicle: saline with Tween-80 99 % of control

CC(C)(O)CC1=C(O)c2ccccc2C(=O)C1=O
inactive: dose: 50.0 mg/kg/injection, schedule: Q01DX001 (ip), vehicle: carboxymethylcellulose (CMC) 105 % of control | [1] 97 % of control | [2] 105 % of control | [3] 105 % of control

Cc1onc(-c2ccccc2Cl)c1C(=O)NC(=S)NC1CC(C)CC(C)(C)C1 (stereo unspecified)
inactive: dose: 25.0 mg/kg/injection, schedule: Q04DX002 (ip), vehicle: saline with Tween-80 97 % of control | dose: 50.0 mg/kg/injection, schedule: Q04DX002 (ip), vehicle: saline with Tween-80 90 % of control | [4] 90 % of control

NC(=S)N/N=C/c1ccc(Cl)cn1
inactive: dose: 7.33 mg/kg/injection, schedule: Q04DX003 (ip), vehicle: saline with Tween-80 97 % of control | dose: 11.0 mg/kg/injection, schedule: Q01DX001 (ip), vehicle: saline with Tween-80 95 % of control | dose: 11.0 mg/kg/injection, schedule: Q04DX003 (ip), vehicle: saline with Tween-80 104 % of control | dose: 16.5 mg/kg/injection, schedule: Q01DX001 (ip), vehicle: saline with Tween-80 105 % of control | dose: 16.5 mg/kg/injection, schedule: Q04DX003 (ip), vehicle: saline with Tween-80 116 % of control | dose: 25.0 mg/kg/injection, schedule: Q01DX001 (ip), vehicle: saline with Tween-80 111 % of control | dose: 25.0 mg/kg/injection, schedule: Q04DX003 (ip), vehicle: saline with Tween-80 121 % of control

NC(CSS(=O)(=O)O)=NCCCCOc1ccccc1
inactive: dose: 6.25 mg/kg/injection, schedule: Q04DX002 (ip), vehicle: Klucel (hydroxypropylcellulose) (HPC) 111 % of control | dose: 12.5 mg/kg/injection, schedule: Q04DX002 (ip), vehicle: Klucel (hydroxypropylcellulose) (HPC) 89 % of control | dose: 25.0 mg/kg/injection, schedule: Q04DX002 (ip), vehicle: Klucel (hydroxypropylcellulose) (HPC) 108 % of control | dose: 100.0 mg/kg/injection, schedule: Q04DX002 (ip), vehicle: Klucel (hydroxypropylcellulose) (HPC) 97 % of control

CC(CCC(=O)O)C1CCC2C3CCC4CC(OC=O)CCC4(C)C3CC(=O)C12C (stereo unspecified)
inactive: dose: 100.0 mg/kg/injection, schedule: Q01DX001 (ip), vehicle: saline with Tween-80 98 % of control | dose: 200.0 mg/kg/injection, schedule: Q01DX001 (ip), vehicle: saline with Tween-80 95 % of control | dose: 400.0 mg/kg/injection, schedule: Q01DX001 (ip), vehicle: saline with Tween-80 101 % of control

Cc1ccc2sc(C)cc(=O)c2c1
inactive: [1] 100 % of control | [2] 100 % of control | [3] 98 % of control

O=[N+]([O-])c1cccc(C=Nc2cc(Cl)ccc2O)c1
inactive: [5] 95 % of control and 86 % of control | [6] 96 % of control and 97 % of control | [7] 100 % of control and 91 % of control

Oc1ccccc1C=NCCN1CC1.Oc1ccccc1C=NCCN1CC1.[Ni+2]
inactive: dose: 12.5 mg/kg/injection, schedule: Q01DX009 (ip), vehicle: saline with Tween-80 88 % of control | dose: 25.0 mg/kg/injection, schedule: Q01DX009 (ip), vehicle: saline with Tween-80 96 % of control | dose: 100.0 mg/kg/injection, schedule: Q04DX003 (ip), vehicle: saline 98 % of control

O=S(=O)(CCO)c1ccc2ccccc2c1
inactive: dose: 100.0 mg/kg/injection, schedule: Q01DX001 (ip), vehicle: Klucel (hydroxypropylcellulose) (HPC) 101 % of control | [8] 101 % of control | dose: 200.0 mg/kg/injection, schedule: Q01DX001 (ip), vehicle: Klucel (hydroxypropylcellulose) (HPC) 98 % of control | [9] 97 % of control | dose: 400.0 mg/kg/injection, schedule: Q01DX001 (ip), vehicle: Klucel (hydroxypropylcellulose) (HPC) 98 % of control | [10] 105 % of control

O=c1[nH]ncc2c1[nH]c1cccc(Cl)c12
inactive: [11] 88 % of control | dose: 400.0 mg/kg/injection, schedule: Q04DX003 (ip), vehicle: carboxymethylcellulose (CMC) 92 % of control

Nc1nc2ncc(NCc3ccc(C(=O)NC(CCC(=O)O)C(=O)O)cc3)nc2c(=O)[nH]1 (stereo unspecified)
inactive: [12] 92 % of control | dose: 100.0 mg/kg/injection, schedule: Q01DX009 (ip), vehicle: saline 103 % of control | dose: 100.0 mg/kg/injection, schedule: Q04DX002 (ip), vehicle: saline 96 % of control and 100 % of control | [13] 91 % of control | dose: 200.0 mg/kg/injection, schedule: Q01DX009 (ip), vehicle: saline 100 % of control | dose: 200.0 mg/kg/injection, schedule: Q04DX002 (ip), vehicle: saline 100 % of control and 102 % of control | [14] 100 % of control | dose: 400.0 mg/kg/injection, schedule: Q01DX009 (ip), vehicle: saline 96 % of control | dose: 400.0 mg/kg/injection, schedule: Q04DX002 (ip), vehicle: saline 100 % of control and 105 % of control

NS(=O)(=O)c1ccc(NC(=O)c2ccc(C(=O)Nc3ccc(S(N)(=O)=O)cc3)cc2)cc1
inactive: [12] 100 % of control | [13] 100 % of control | [14] 100 % of control

CC(=O)c1c(C)cc(C)nc1C
inactive: [12] 96 % of control | [13] 102 % of control

O=c1[nH][nH]c(=O)c2nc3ccccc3nc12
inactive: [5] 97 % of control | [8] 94 % of control | [6] 100 % of control | [9] 97 % of control | [7] 93 % of control | [10] 92 % of control

O=C(O)C(Cc1cccs1)c1ccccc1 (stereo unspecified)
inactive: dose: 50.0 mg/kg/injection, schedule: Q04DX003 (ip), vehicle: carboxymethylcellulose (CMC) 98 % of control | dose: 100.0 mg/kg/injection, schedule: Q04DX003 (ip), vehicle: carboxymethylcellulose (CMC) 106 % of control | [11] 106 % of control

O=C1CCN2CCC(=O)c3c(Cl)ccc1c32
inactive: dose: 100.0 mg/kg/injection, schedule: Q01DX001 (ip), vehicle: other 100 % of control | dose: 200.0 mg/kg/injection, schedule: Q01DX001 (ip), vehicle: other 97 % of control | dose: 400.0 mg/kg/injection, schedule: Q01DX001 (ip), vehicle: other 100 % of control

CC1(C)C=C(C(Br)c2cccc(Br)c2)C(=O)c2ccccc21 (stereo unspecified)
inactive: [5] 101 % of control | [8] 97 % of control | [6] 100 % of control | [9] 95 % of control | [7] 102 % of control | [10] 103 % of control

Cc1ccc(N2C(=O)C3C(C2=O)C2(Cl)C(Cl)=C(Cl)C3(Cl)C2(Cl)Cl)cc1Cl (stereo unspecified)
inactive: [5] 94 % of control | [6] 87 % of control | [7] 92 % of control

CN(C)P(=O)(Oc1c(Cl)c(Cl)c(Cl)c(Cl)c1Cl)Oc1c(Cl)c(Cl)c(Cl)c(Cl)c1Cl
inactive: [4] 107 % of control | dose: 200.0 mg/kg/injection, schedule: Q04DX002 (ip), vehicle: saline with Tween-80 110 % of control | dose: 400.0 mg/kg/injection, schedule: Q04DX002 (ip), vehicle: saline with Tween-80 93 % of control
